Assay results reported in patent US20140227173A1, “CANCER TREATMENT WITH GAMMA-SECRETASE INHIBITORS” (The Johns Hopkins University, priority 2006, published 2014).

How the values were obtained:
[1] = system: panel of 10 human pancreatic cancer cell lines; test: MTT growth assay; type: cell-based; conditions: 96 hours; dosages of 2, 5, and 10 μM
[2] = system: Notch pathway target Hes1; test: Hes1 mRNA and protein levels (RT PCR, Western blot); type: cell-based
Experimental: (§1) The DAOY, PFSK, D283 and D425 Med cell lines were obtained from the American Type Culture Collection. The low-passage MB line MB2 was derived from a tumor resected at Johns Hopkins Hospital. For treatment studies, cell were plated and allowed to grow overnight in MEM (Invitrogen, Carlsbad, Calif.) containing 10% FBS, then media was replaced the next morning with low serum (0.5% FBS) MEM containing GSI dissolved in DMSO. RNA and protein extractions, and all cell-based assays, were performed 48 hours after drug application unless otherwise noted. All experiments with error bars were performed in triplicate and shown as mean values with standard error unless otherwise noted. Cell mass was measured using CellTITER assays according to the manufacturer's instructions (Promega, Madison, Wis.). Cell number and viability were assessed using the Guava PCA and Viacount reagent according to instructions (Guava Technologies, Heyward, Calif.). Soft agar assays were performed as previously described (15) and scored either manually after 4 weeks or using as automated reader after 6 weeks. […] Soft agar assays were performed as previously described, with colonies counted using an automated reader (15).
Quantitative RT PCR for Notch1, Notch2 and Hes1 was performed as previously described (29), with all reactions normalized to actin (Applied Biosystems, Foster City, Calif.). […]

DAOY [3] = test: Nestin immunocytochemistry, strongly nestin-positive fraction; type: cell-based; conditions: 2 μM, 48 hours
DAOY [4] = test: Flow cytometric analysis of the cell cycle; type: cell-based; conditions: 2 μM
Description: (§2) Double immunolabeling, using antibodies specific for nestin and for Ki67, a marker of proliferating cells, was used to determine effects of Notch pathway blockade on the cell cycle. […] While adult neural stem cells are generally thought to be relatively quiescent, during embryonic growth of the brain the stem cell compartment is highly proliferative. The high rate of division observed in stem-like MB cells may reflect their similarity to those in fetal germinal epithelium.
(§3) Flow cytometric analysis of S-phase fraction and cell cycle kinetics was performed using a FACSCalibur (Becton Dickinson, San Jose, Calif.) with CELL Quest, version 3.3 software (15). CD133 studies were performed using the same instrument, with antibodies from Miltenyi (Miltenyi Biotec, Auburn, Calif.) according to the manufacturer's instructions. Cells expressing levels of CD133 higher than those seen in IgG controls were considered positive. For analyses of side population, cells (10^6/ml) were incubated with Hoechst 33342 (3 μM, Molecular Probes, Carlsbad, Calif.) for 90 minutes at 37° C. in DMEM containing 2% FBS. Prior to analysis, cells were washed and resuspended in 2 μg/ml PI (Sigma, St. Louis, Mo.). Cells were analyzed on a LSR flow cytometer equipped with 424/44 nm band pass and 670 nm long pass optical filters (Omega Optical, Brattleboro, Vt.). […]

PFSK = test: Flow cytometric analysis of the cell cycle; type: cell-based; conditions: 2 μM
Description: as §2, §3

Akt = Akt phosphorylation and Caspase3 cleavage in GBM neurosphere cells; type: cell-based
Experimental: (§4) (A) Increase of cleaved Caspase 3 and loss of Akt phosphorylation is induced by 0.4 uMor higher levels of GSI-18, while overall levels of Akt and GAPDH are unchanged in DAOY medulloblastoma cells. (B) Cell death in 2 uM GSI-18 is reduced in a representative subclone of DAOY expressing activated Akt as compare to vector transfected cells. (C) Loss of Akt phosphorylation and activation of Caspase3 cleavage is induced by 2 μM or higher levels of GSI-18, while overall levels of Akt and GAPDH are unchanged in GBM neurosphere cells.
(§5) It has been shown that the Notch signaling pathway regulates normal stem cells in the Central Neural System (CNS), and that GBMs contain cancer stem cells (CSCs) with higher Notch activity (Cancer Research, 64:7011-21, 2004; Cancer Cell, 9:391-403, 2006). However, it has not been known if Notch pathway blockade could target CSCs in GBM. […] In the present study, we used GBM neurospheres to examine the effects of Notch pathway blockade in GBM. […] Furthermore, overexpression of an active form of Notch2 (NICD2) increases tumor growth in vitro.

[5] = system: DAOY expressing activated Akt; test: Apoptosis and growth in DAOY subclones expressing constitutively active Akt; type: cell-based
Experimental: as §4
It has previously been shown that Akt is a critical effector of Notch-regulated survival and growth outside the brain (26, 27). Therefore, it was examined whether Akt was also a mediator of the pro-survival and pro-growth effects of Notch in brain tumors. GSI-18 blocks the phosphorylation of Akt required for its activation at concentrations as low as 0.4 μM (FIG. 7F). […] Thus the pro-survival effects of Notch signaling in MB appear to be mediated at least in part by Akt.
as §1, with “All experiments with error bars were performed in triplicate and shown as mean values with standard error unless otherwise noted.” left out

D425Med = test: Xenograft initiation by pretreated cells in athymic (nude) mice; type: in vivo; conditions: treated 48 hours, n=2
[6] = system: GBM neurosphere line HSR-GBM1a; test: Growth of GBM neurospheres in vitro (total cell number); type: cell-based
Experimental: (A, B) CD133 is expressed in GBM neurosphere line HSR-GBM1a. (C) The total cell number was decreased upon GSI-18 treatment for 48 h in this line and in the subclones of the line. […] (E) Protein expression of Hes1, a Notch pathway target gene, was reduced upon GSI-18 treatment in GBM neurosphere cells.
as §5

GBM neurospheres = test: Proliferation (Ki67 index) in the Nestin positive population of GBM neurospheres; type: cell-based
Description: as §5

O=S(=O)(NC1C2CCC1Cc1ccccc1C2)c1cccs1 (stereo not drawn) [GSI-18, [11-endo]-N-(5,6,7,8,9,10-hexahydro-6,9-methanobenzo[α][8]annulen-11-yl)-thiophene-2-sulfonamide]
in vitro growth measured by MTT assays [1]: modest to minimal effects on growth | reduction of mRNA and protein levels of Hes1 ([2]; 2 μM, after 48 hours): over 70% | levels that did not affect Hes1 mRNA levels ([2]; data not shown): lower than 0.4 μM | fold reduction of strongly nestin-positive fraction (DAOY [3]; p<0.01): 4 fold | strongly nestin-positive fraction after treatment (DAOY [3]; untreated 10%): 2.4% | G1/G0, S phase and G2/M cell fractions (DAOY [4]): increased the G1/G0 cell fraction and decreased the S phase and G2/M fractions | G1/G0, S phase and G2/M cell fractions (PFSK): increased the G1/G0 cell fraction and decreased the S phase and G2/M fractions | levels inducing loss of Akt phosphorylation and activation of Caspase3 cleavage (Akt; GBM neurosphere cells): ≥ 2 µM | expression of cleaved caspase 3 and phosphorylated Akt (Akt; GBM neurosphere lines): Increased expression of cleaved caspase 3 and reduced expression of phosphorelated Akt | cell death vs vector transfected cells ([5]; 2 uM, representative subclone of DAOY expressing activated Akt): reduced | apoptotic rate on exposure ([5]; MB cells stably transfected with constitutively active Akt, 2 μM): not significantly increased | inhibition of cell growth in Akt-transfected subclones ([5]; two DAOY subclones with constitutively active Akt, data not shown): partially rescued | engraftment of pretreated cells (D425Med): failed to engraft | total cell number ([6]; 48 h, HSR-GBM1a and subclones): decreased | tumor growth in vitro ([6]; GBM neurospheres, 2 μM): inhibits tumor growth in vitro | proliferation (Ki67 index) in the Nestin positive population (GBM neurospheres): decrease in proliferation (Ki67 index)
